The text below walks through data of patent US7820683B2, “4-(1H-indazol-5-yl-amino)-quinazoline compounds as erbB receptor tyrosine kinase inhibitors for the treatment of cancer” (AstraZeneca AB, priority 2005, dated 2010).

For assay [1], the system named is phosphorylation of erbB2 in a MCF7 derived cell line (Clone 24 cells). Nature of the assay: Clone 24 phospho-erbB2 cell assay, Test (c). The assay is classed as cell-based. Particulars: Homo sapiens; MCF7 derived Clone 24 cells, 4 hours; read-out: IC50 Test (c): Inhibition of erbB2 tyrosine kinase protein phosphorylation. On the procedure: This immunofluorescence end point assay measures the ability of a test compound to inhibit the phosphorylation of erbB2 in a MCF7 (breast carcinoma) derived cell line which was generated by transfecting MCF7 cells with the full length erbB2 gene using standard methods to give a cell line that overexpresses full length wild type erbB2 protein (hereinafter ‘Clone 24’ cells).
Clone 24 cells were cultured in Growth Medium (phenol red free Dulbecco's modified Eagle's medium (DMEM) containing 10% foetal bovine serum, 2 mM glutamine and 1.2 mg/ml G418) in a 7.5% CO2 air incubator at 37° C. […] Cell density was measured using a haemocytometer and viability was calculated using Trypan Blue solution before being further diluted in Growth Medium and seeded at a density of 1×10^4 cells per well (in 100 ul) into clear bottomed 96 well plates (Packard, No. 6005182). […]
Immunostaining was performed at room temperature. […] Plates were analysed within six hours of completing the immunostaining.
The Fluorescence signal is each well was measured using an Acumen Explorer Instrument (Acumen Bioscience Ltd.), a plate reader that can be used to rapidly quantitate features of images generated by laser-scanning. […]

Assay [2] addresses T1, EGFR tyrosine kinase (Homo sapiens, UniProt P00533).
T1 construct: Recombinant intracellular fragments of EGFR, erbB2 and erbB4; made in house; host or cells: baculovirus/Sf21 insect cells (cleared lysate used)
The assay can be described thus: Protein tyrosine kinase phosphorylation assay, Test (a), EGFR. The assay is classed as biochemical. As to conditions: recombinant intracellular fragment, ATP at Km; read-out: IC50 Test (a): Inhibition of EGFR tyrosine kinase protein phosphorylation. The procedure: (§1) This test measures the ability of a test compound to inhibit the phosphorylation of a tyrosine containing polypeptide substrate by EGFR, erbB2 and erbB4 tyrosine kinase enzyme.
(§2) Recombinant intracellular fragments of EGFR, erbB2 and erbB4 (accession numbers X00588, X03363 and L07868 respectively) were cloned and expressed in the baculovirus/Sf21 system. Lysates were prepared from these cells by treatment with ice-cold lysis buffer (20 mM N-2-hydroxyethylpiperizine-N′-2-ethanesulfonic acid (HEPES) pH7.5, 150 mM NaCl, 10% glycerol, 1% Triton X-100, 1.5 mM MgCl2, 1 mM ethylene glycol-bis(β-aminoethyl ether) N′,N′,N′,N′-tetraacetic acid (EGTA), plus protease inhibitors and then cleared by centrifugation.
(§3) Constitutive kinase activity of these recombinant proteins was determined by their ability to phosphorylate a synthetic peptide (made up of a random co-polymer of Glutamic Acid, Alanine and Tyrosine in the ratio of 6:3:1). […]
(§4) The immobilised phospho-peptide product of the reaction was detected by immunological methods. […]
(§5) Kinase inhibition for a given compound was expressed as an IC50 value. […] The range of phosphorylation was calculated from the positive (vehicle plus ATP) and negative (vehicle minus ATP) control values.

In assay [3] the target is T2, erbB2 tyrosine kinase (Homo sapiens, UniProt P04626).
T2 construct: Recombinant intracellular fragments of EGFR, erbB2 and erbB4; made in house; host or cells: baculovirus/Sf21 insect cells (cleared lysate used)
Nature of the assay: Protein tyrosine kinase phosphorylation assay, Test (a), erbB2. The assay is classed as biochemical. As to conditions: recombinant intracellular fragment, ATP at Km; read-out: IC50 Test (a): Inhibition of erbB2 tyrosine kinase protein phosphorylation. On the procedure:
as §1, §2, §3, §4, §5

T1 sequence (P00533 669-1210 limits assumed): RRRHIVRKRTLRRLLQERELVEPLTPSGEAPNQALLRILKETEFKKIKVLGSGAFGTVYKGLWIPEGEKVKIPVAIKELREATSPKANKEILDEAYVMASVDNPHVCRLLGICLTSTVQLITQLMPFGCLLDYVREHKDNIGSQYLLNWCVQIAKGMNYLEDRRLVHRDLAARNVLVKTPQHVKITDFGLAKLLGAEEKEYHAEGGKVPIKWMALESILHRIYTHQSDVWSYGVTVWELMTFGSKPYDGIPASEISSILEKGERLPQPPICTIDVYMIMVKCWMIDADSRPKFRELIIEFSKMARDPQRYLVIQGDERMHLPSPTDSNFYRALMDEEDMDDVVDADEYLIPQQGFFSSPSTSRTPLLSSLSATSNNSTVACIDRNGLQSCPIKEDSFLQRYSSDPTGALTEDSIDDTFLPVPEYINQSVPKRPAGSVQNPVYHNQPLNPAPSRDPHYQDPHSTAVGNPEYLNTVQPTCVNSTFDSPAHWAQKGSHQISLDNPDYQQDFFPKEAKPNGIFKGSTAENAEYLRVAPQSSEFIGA
T2 sequence (P04626 676-1255 limits assumed): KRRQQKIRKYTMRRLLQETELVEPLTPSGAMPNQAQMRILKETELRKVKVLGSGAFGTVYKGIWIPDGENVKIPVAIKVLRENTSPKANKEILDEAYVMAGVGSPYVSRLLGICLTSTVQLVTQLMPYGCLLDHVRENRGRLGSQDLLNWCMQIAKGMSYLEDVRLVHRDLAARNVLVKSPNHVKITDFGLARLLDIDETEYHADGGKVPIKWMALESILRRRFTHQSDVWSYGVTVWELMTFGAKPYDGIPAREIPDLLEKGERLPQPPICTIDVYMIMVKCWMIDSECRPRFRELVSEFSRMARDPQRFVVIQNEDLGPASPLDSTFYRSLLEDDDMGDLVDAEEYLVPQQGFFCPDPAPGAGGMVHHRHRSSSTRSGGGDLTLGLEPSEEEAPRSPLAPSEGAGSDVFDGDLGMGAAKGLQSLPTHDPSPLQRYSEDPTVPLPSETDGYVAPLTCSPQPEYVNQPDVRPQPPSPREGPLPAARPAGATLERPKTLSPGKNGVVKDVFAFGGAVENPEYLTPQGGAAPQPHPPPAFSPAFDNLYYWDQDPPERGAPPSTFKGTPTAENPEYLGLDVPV

For `C[C@@H](Oc1cccc2ncnc(Nc3ccc4c(cnn4Cc4ccccn4)c3)c12)C(=O)N1CCOCC1` [Example 2, 5-[(1R)-1-Methyl-2-morpholin-4-yl-2-oxoethoxy]-N-[1-(pyridin-2-ylmethyl)-1H-indazol-5-yl]quinazolin-4-amine], the IC50 (as a rule, the point on the concentration scale where inhibition reaches its midpoint) in assay [1] was 35 nM.
For the compound `C[C@@H](Oc1cccc2ncnc(Nc3ccc4c(cnn4Cc4ccccn4)c3)c12)C(=O)N(C)CCO` [Example 1, (2R)—N-(2-Hydroxyethyl)-N-methyl-2-[(4-{[1-(pyridin-2-ylmethyl)-1H-indazol-5-yl]amino}quinazolin-5-yl)oxy]propanamide], the IC50 in assay [2] turned out to be 210 nM; in assay [3], 12 nM.
